These molecules were tested on HIV in the HTLV-1 transformed cell line MT-4 (assay: organism not typed). Conditions: MT4, 96 h, MT-4 cells; luciferase/cell titer glo readout after 96 hours; 10 point dose response.
Type: cell-based

Compared with `Cc1ccc(-c2c(C)c3c(c(C)c2[C@H](OC(C)(C)C)C(=O)O)CN(C(=O)c2ccc(Cl)c(F)c2)C3)cc1` [Example 264, (S)-2-(tert-butoxy)-2-(2-(4-chloro-3-fluorobenzoyl)-4,7-dimethyl-6-(p-tolyl)isoindolin-5-yl)acetic acid], `Cc1ccc(-c2c(C)c3c(c(C)c2[C@H](OC(C)(C)C)C(=O)O)CN(C(=O)c2ccc(Cl)c(Cl)c2)C3)cc1` [Example 276, (S)-2-(tert-butoxy)-2-(2-(3,4-dichlorobenzoyl)-4,7-dimethyl-6-(p-tolyl)isoindolin-5-yl)acetic acid] is 1.8-fold higher in IC50: 9 nM for the first, 16 nM for the second.

`Cc1ccc(-c2c(C)c3c(c(C)c2[C@H](OC(C)(C)C)C(=O)O)CN(C(=O)c2ccc4c(c2)OCO4)C3)cc1` [Example 265, (S)-2-(2-(benzo[d][1,3]dioxole-5-carbonyl)-4,7-dimethyl-6-(p-tolyl)isoindolin-5-yl)-2-(tert-butoxy)acetic acid] and `Cc1ccc(-c2c(C)c3c(c(C)c2[C@H](OC(C)(C)C)C(=O)O)CN(C(=O)c2cccc4c2OCO4)C3)cc1` [Example 275, (S)-2-(2-(benzo[d][1,3]dioxole-4-carbonyl)-4,7-dimethyl-6-(p-tolyl)isoindolin-5-yl)-2-(tert-butoxy)acetic acid] are within 1.5-fold of each other in IC50: 4 nM for the first, 5 nM for the second.

Going from `Cc1ccc(-c2c(C)c3c(c(C)c2[C@H](OC(C)(C)C)C(=O)O)CN(C(=O)c2cc(F)cc(C(N)=O)c2)C3)cc1` [Example 266, (S)-2-(tert-butoxy)-2-(2-(3-carbamoyl-5-fluorobenzoyl)-4,7-dimethyl-6-(p-tolyl)isoindolin-5-yl)acetic acid] to `Cc1ccc(-c2c(C)c3c(c(C)c2[C@H](OC(C)(C)C)C(=O)O)CN(C(=O)c2cc(F)cc(C(=O)O)c2)C3)cc1` [Example 267, (S)-3-(5-(tert-butoxy(carboxy)methyl)-4,7-dimethyl-6-(p-tolyl)isoindoline-2-carbonyl)-5-fluorobenzoic acid], the IC50 rises from 126 nM to 3460 nM (27-fold).

`Cc1ccc(-c2c(C)c3c(c(C)c2[C@H](OC(C)(C)C)C(=O)O)CN(C(=O)c2cccnc2)C3)cc1` [Example 268, (S)-2-(tert-butoxy)-2-(4,7-dimethyl-2-nicotinoyl-6-(p-tolyl)isoindolin-5-yl)acetic acid] and `Cc1ccc(-c2c(C)c3c(c(C)c2[C@H](OC(C)(C)C)C(=O)O)CN(C(=O)c2ccc(C)nc2)C3)cc1` [Example 283, (S)-2-(tert-butoxy)-2-(4,7-dimethyl-2-(6-methylnicotinoyl)-6-(p-tolyl)isoindolin-5-yl)acetic acid] are within 1.5-fold of each other in IC50: 14 nM for the first, 13 nM for the second.

`Cc1ccc(-c2c(C)c3c(c(C)c2[C@H](OC(C)(C)C)C(=O)O)CN(C(=O)c2cncs2)C3)cc1` [Example 269, (S)-2-(tert-butoxy)-2-(4,7-dimethyl-2-(thiazole-5-carbonyl)-6-(p-tolyl)isoindolin-5-yl)acetic acid] and `Cc1ccc(-c2c(C)c3c(c(C)c2[C@H](OC(C)(C)C)C(=O)O)CN(C(=O)c2cocn2)C3)cc1` [Example 272, (S)-2-(tert-butoxy)-2-(4,7-dimethyl-2-(oxazole-4-carbonyl)-6-(p-tolyl)isoindolin-5-yl)acetic acid] are within 1.5-fold of each other in IC50: 116 nM for the first, 86 nM for the second.

Compared with `Cc1ccc(-c2c(C)c3c(c(C)c2[C@H](OC(C)(C)C)C(=O)O)CN(C(=O)c2ccc(Cl)cc2)C3)cc1` [Example 270, (S)-2-(tert-butoxy)-2-(2-(4-chlorobenzoyl)-4,7-dimethyl-6-(p-tolyl)isoindolin-5-yl)acetic acid], `Cc1ccc(-c2c(C)c3c(c(C)c2[C@H](OC(C)(C)C)C(=O)O)CN(C(=O)c2cc(Cl)cc(Cl)c2)C3)cc1` [Example 271, (S)-2-(tert-butoxy)-2-(2-(3,5-dichlorobenzoyl)-4,7-dimethyl-6-(p-tolyl)isoindolin-5-yl)acetic acid] is 2-fold higher in IC50: 4 nM for the first, 8 nM for the second.

First: Cc1ccc(-c2c(C)c3c(c(C)c2[C@H](OC(C)(C)C)C(=O)O)CN(C(=O)c2ccccn2)C3)cc1 [Example 273, (S)-2-(tert-butoxy)-2-(4,7-dimethyl-2-picolinoyl-6-(p-tolyl)isoindolin-5-yl)acetic acid]
Second: Cc1ccc(-c2c(C)c3c(c(C)c2[C@H](OC(C)(C)C)C(=O)O)CN(C(=O)c2cnc(-c4ccccc4)o2)C3)cc1 [Example 274, (S)-2-(tert-butoxy)-2-(4,7-dimethyl-2-(2-phenyloxazole-5-carbonyl)-6-(p-tolyl)isoindolin-5-yl)acetic acid]
The IC50 of the first is 74-fold lower: 4 nM for the first, 297 nM for the second.

Going from `Cc1ccc(-c2c(C)c3c(c(C)c2[C@H](OC(C)(C)C)C(=O)O)CN(C(=O)c2cc(F)c(Cl)c(Cl)c2)C3)cc1` [Example 277, (S)-2-(tert-butoxy)-2-(2-(3,4-dichloro-5-fluorobenzoyl)-4,7-dimethyl-6-(p-tolyl)isoindolin-5-yl)acetic acid] to `Cc1ccc(-c2c(C)c3c(c(C)c2[C@H](OC(C)(C)C)C(=O)O)CN(C(=O)c2cc(F)c(F)c(Cl)c2)C3)cc1` [Example 280, (S)-2-(tert-butoxy)-2-(2-(3-chloro-4,5-difluorobenzoyl)-4,7-dimethyl-6-(p-tolyl)isoindolin-5-yl)acetic acid], the IC50 falls from 14 nM to 8 nM (1.8-fold).

`Cc1ccc(-c2c(C)c3c(c(C)c2[C@H](OC(C)(C)C)C(=O)O)CN(C(=O)c2cc(C)c(F)c(F)c2)C3)cc1` [Example 278, (S)-2-(tert-butoxy)-2-(2-(3,4-difluoro-5-methylbenzoyl)-4,7-dimethyl-6-(p-tolyl)isoindolin-5-yl)acetic acid] and `Cc1ccc(-c2c(C)c3c(c(C)c2[C@H](OC(C)(C)C)C(=O)O)CN(C(=O)c2cc(F)c(F)c(F)c2)C3)cc1` [Example 279, (S)-2-(tert-butoxy)-2-(4,7-dimethyl-6-(p-tolyl)-2-(3,4,5-trifluorobenzoyl)isoindolin-5-yl)acetic acid] are within 1.5-fold of each other in IC50: 5 nM for the first, 4 nM for the second.

Compared with `Cc1ccc(-c2c(C)c3c(c(C)c2[C@H](OC(C)(C)C)C(=O)O)CN(C(=O)c2cc(Cl)c(F)c(Cl)c2)C3)cc1` [Example 281, (S)-2-(tert-butoxy)-2-(2-(3,5-dichloro-4-fluorobenzoyl)-4,7-dimethyl-6-(p-tolyl)isoindolin-5-yl)acetic acid], `Cc1ccc(-c2c(C)c3c(c(C)c2[C@H](OC(C)(C)C)C(=O)O)CN(C(=O)c2cc(F)c(Cl)c(F)c2)C3)cc1` [Example 282, (S)-2-(tert-butoxy)-2-(2-(4-chloro-3,5-difluorobenzoyl)-4,7-dimethyl-6-(p-tolyl)isoindolin-5-yl)acetic acid] is 2.4-fold lower in IC50: 17 nM for the first, 7 nM for the second.

First: COc1cccc(C(=O)N2Cc3c(C)c(-c4ccc(C)cc4)c([C@H](OC(C)(C)C)C(=O)O)c(C)c3C2)c1OC [Example 284, (S)-2-(tert-butoxy)-2-(2-(2,3-dimethoxybenzoyl)-4,7-dimethyl-6-(p-tolyl)isoindolin-5-yl)acetic acid]
Second: Cc1ccc(-c2c(C)c3c(c(C)c2[C@H](OC(C)(C)C)C(=O)O)CN(C(=S)c2cccc(F)c2)C3)cc1 [Example 288, (S)-2-(tert-butoxy)-2-(2-(3-fluorophenylcarbonothioyl)-4,7-dimethyl-6-(p-tolyl)isoindolin-5-yl)acetic acid]
The IC50 of the first is 3.2-fold higher: 48 nM for the first, 15 nM for the second.

`Cc1ccc(-c2c(C)c3c(c(C)c2[C@H](OC(C)(C)C)C(=O)O)CN(C(=O)OCC(C)(C)C)C3)cc1` [Example 287, (S)-2-(tert-butoxy)-2-(4,7-dimethyl-2-((neopentyloxy)carbonyl)-6-(p-tolyl)isoindolin-5-yl)acetic acid] and `Cc1ccc(-c2c(C)c3c(c(C)c2[C@H](OC(C)(C)C)C(=O)O)CN(C(=O)N2CCC(C)(C)C2)C3)cc1` [Example 291, (S)-2-(tert-butoxy)-2-(2-(3,3-dimethylpyrrolidine-1-carbonyl)-4,7-dimethyl-6-(p-tolyl)isoindolin-5-yl)acetic acid] are the same in IC50: 5 nM for the first, 5 nM for the second.

Going from `Cc1ccc(-c2c(C)c3c(c(C)c2[C@H](OC(C)(C)C)C(=O)O)CN(S(=O)(=O)N2CCC(F)(F)C2)C3)cc1` [Example 289, (S)-2-(tert-butoxy)-2-(2-((3,3-difluoropyrrolidin-1-yl)sulfonyl)-4,7-dimethyl-6-(p-tolyl)isoindolin-5-yl)acetic acid] to `Cc1ccc(-c2c(C)c3c(c(C)c2[C@H](OC(C)(C)C)C(=O)O)CN(C(=O)N2CC[C@H](F)C2)C3)cc1` [Example 294, (S)-2-(tert-butoxy)-2-(2-((S)-3-fluoropyrrolidine-1-carbonyl)-4,7-dimethyl-6-(p-tolyl)isoindolin-5-yl)acetic acid], the IC50 falls from 14 nM to 4 nM (3.5-fold). The second is the more potent here.

Compared with `Cc1ccc(-c2c(C)c3c(c(C)c2[C@H](OC(C)(C)C)C(=O)O)CN(C(=O)NCc2ncccn2)C3)cc1` [Example 290, (S)-2-(tert-butoxy)-2-(4,7-dimethyl-2-((pyrimidin-2-ylmethyl)carbamoyl)-6-(p-tolyl)isoindolin-5-yl)acetic acid], `Cc1ccc(-c2c(C)c3c(c(C)c2[C@H](OC(C)(C)C)C(=O)O)CN(C(=O)N2CCC[C@H]2C)C3)cc1` [Example 292, (S)-2-(tert-butoxy)-2-(4,7-dimethyl-2-((R)-2-methylpyrrolidine-1-carbonyl)-6-(p-tolyl)isoindolin-5-yl)acetic acid] is 510-fold lower in IC50: 2560 nM for the first, 5 nM for the second. The second is the more potent here.

`Cc1ccc(-c2c(C)c3c(c(C)c2[C@H](OC(C)(C)C)C(=O)O)CN(C(=O)N2CCCC[C@@H]2C)C3)cc1` [Example 293, (S)-2-(tert-butoxy)-2-(4,7-dimethyl-2-((S)-2-methylpiperidine-1-carbonyl)-6-(p-tolyl)isoindolin-5-yl)acetic acid] and `Cc1c2c(c(C)c([C@H](OC(C)(C)C)C(=O)O)c1C1=CCC(C)(C)CC1)CN(C(=O)c1cccc(F)c1)C2` [Example 302, (S)-2-(tert-butoxy)-2-(6-(4,4-dimethylcyclohex-1-en-1-yl)-2-(3-fluorobenzoyl)-4,7-dimethylisoindolin-5-yl)acetic acid] are the same in IC50: 4 nM for the first, 4 nM for the second.

For `Cc1c2c(c(C)c([C@H](OC(C)(C)C)C(=O)O)c1-c1ccc3c4c(ccnc14)CCO3)CN(C(=O)c1cccc(F)c1)C2` [Example 299, (2S)-2-(tert-butoxy)-2-(6-(2,3-dihydropyrano[4,3,2-de]quinolin-7-yl)-2-(3-fluorobenzoyl)-4,7-dimethylisoindolin-5-yl)acetic acid], the IC50 was 14 nM.

From patent publication US10112899B2 (ViiV HEALTHCARE UK LIMITED, priority 2014, dated 2018)
